The values below come from patent US11160806B2, “Salt of N-(2,6-diethylphenyl)-8-({4-[4-(dimethylamino) piperidin-1-yl]-2-methoxyphenyl}amino)-1-methyl-4,5-dihydro-1H-pyrazolo[4,3-h]quinazoline-3-carboxamide, its preparation, and formulations containing it” (LES LABORATOIRES SERVIER, priority 2017, dated 2021).

A short description of data set [1]: Stability over time under denaturing conditions (40° C./75% RH), chemical purity. Format: physicochemical. Here is the method:
The compound of formula (II) according to the invention has a good stability over time under denaturing conditions (40° C./75% Relative Humidity (RH)): […]

Data set [2] is described as follows: Hygroscopicity by Dynamic Vapour Sorption. Format: physicochemical. Here is the method: The compound to be tested is submitted to hygroscopicity test by means of a Dynamic Vapour Sorption apparatus (DVS 1000—Surface Measurement Systems).
The apparatus is briefly defined as a “controlled atmosphere microbalance” where the weighed sample is exposed to variations of the relative humidity (RH) at a constant and controlled temperature. An exactly weighed amount of the product (generally 5-10 mg) was analysed.

Data set [3] can be described thus: Purity and stability under long term conditions. Format: physicochemical. An excerpt: Purity and stability of N-(2,6-diethylphenyl)-8-({4-[4-(dimethylamino) piperidin-1-yl]-2-methoxy phenyl}amino)-1-methyl-4,5-dihydro-1H-pyrazolo[4,3-h]quinazoline-3-carboxamide phosphate Form I have been tested under long term conditions as follows: […]
The nature of data set [4]: Preliminary solubility test, in situ salt formation from the amorphous base in water at room temperature. The class given is physicochemical.
A short description of data set [5]: Solubility of phosphate salt crystalline form I in water (WFI) or NaCl 0.9% at room temperature, HPLC. The class given is physicochemical. Particulars: for Solubility 1 hour / Solubility 24 hours: room temperature. Here is the method:
Testing conditions: about 730 mg of testing compound were suspended in 4 ml of WFI (water for injection) or Saline (0.9% NaCl) to test a target solubility of 150 mg/ml as free base. The suspensions were magnetically stirred for 24 hours at room temperature and protected from light in amber glass vial. Testing compound concentrations were determined after 1 and 24 hours.

Data set [6] concerns the target T1, MPS1 (Monopolar Spindle 1) kinase, also known as TTK (Homo sapiens, UniProt P33981).
T1 sequence (P33981 1-857): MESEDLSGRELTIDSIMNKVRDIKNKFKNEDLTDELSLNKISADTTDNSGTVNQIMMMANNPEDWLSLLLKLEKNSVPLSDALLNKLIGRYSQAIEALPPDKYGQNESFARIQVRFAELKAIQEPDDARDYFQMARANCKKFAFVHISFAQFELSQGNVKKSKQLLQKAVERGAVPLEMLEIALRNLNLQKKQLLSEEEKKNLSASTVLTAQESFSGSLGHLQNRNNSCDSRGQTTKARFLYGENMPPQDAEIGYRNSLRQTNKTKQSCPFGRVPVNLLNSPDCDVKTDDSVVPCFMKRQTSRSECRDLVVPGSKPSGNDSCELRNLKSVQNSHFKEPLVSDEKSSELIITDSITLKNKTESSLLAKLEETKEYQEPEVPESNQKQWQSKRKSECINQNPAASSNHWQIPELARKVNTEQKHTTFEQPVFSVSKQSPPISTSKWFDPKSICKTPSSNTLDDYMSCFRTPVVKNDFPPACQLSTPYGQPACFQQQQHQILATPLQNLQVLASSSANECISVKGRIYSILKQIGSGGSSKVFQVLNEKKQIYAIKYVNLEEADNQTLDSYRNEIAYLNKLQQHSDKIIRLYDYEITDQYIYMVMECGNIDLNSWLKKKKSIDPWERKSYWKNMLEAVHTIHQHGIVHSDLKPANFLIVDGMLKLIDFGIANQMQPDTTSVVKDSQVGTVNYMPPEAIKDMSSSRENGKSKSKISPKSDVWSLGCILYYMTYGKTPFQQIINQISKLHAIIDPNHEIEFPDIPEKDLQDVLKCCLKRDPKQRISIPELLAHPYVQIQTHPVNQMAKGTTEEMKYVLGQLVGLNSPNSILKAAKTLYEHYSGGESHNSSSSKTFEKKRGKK
To be noted: cited from earlier work.

In the case of `CCc1cccc(CC)c1NC(=O)c1nn(C)c2c1CCc1cnc(Nc3ccc(N4CCC(N(C)C)CC4)cc3OC)nc1-2.O=P(O)(O)O` [Phosphate salt, N-(2,6-diethylphenyl)-8-({4-[4-(dimethylamino)piperidin-1-yl]-2-methoxyphenyl}amino)-1-methyl-4,5-dihydro-1H-pyrazolo[4,3-h]quinazoline-3-carboxamide phosphate], the results for the Chemical purity in data set [1] (1 month 40° C./75% RH Open bottle) and in data set [1] (t0) were 99.4% and 99.5%, respectively. The same molecule yielded a Water uptake at 30% RH in data set [2] of 0.4%. The molecule also gave a Water uptake at 60% RH in data set [2] of 1%. Moreover, the Water uptake at 90% RH in data set [2] was found to be 2.5%. In addition, the Appearance entry in data set [3] (1 month 5° C.), in data set [3] (1 month 25° C./60% RH), in data set [3] (3 months 5° C.), in data set [3] (3 months 25° C./60% RH), in data set [3] (9 months 5° C.) and in data set [3] (12 months 5° C.) was “Yellow” each time. Further, the Appearance entry in data set [3] (24 months 5° C.) and in data set [3] (t0) was “Yellow” in each case. Further, the Drug substance came out at 99.94% in data set [3] (1 month 5° C.); 99.93% in data set [3] (1 month 25° C./60% RH); 99.93% in data set [3] (3 months 5° C.); 99.93% in data set [3] (3 months 25° C./60% RH); 99.93% in data set [3] (9 months 5° C.); 99.94% in data set [3] (12 months 5° C.). In addition, the Drug substance in data set [3] (24 months 5° C.) was 99.91%; in data set [3] (t0), 99.94%. The “Total amount of impurities” value in data set [3] (1 month 5° C.) was 0.06%; in data set [3] (1 month 25° C./60% RH) it was 0.07%; in data set [3] (3 months 5° C.), 0.07%; in data set [3] (3 months 25° C./60% RH) it was 0.07%; in data set [3] (9 months 5° C.), 0.07%; in data set [3] (12 months 5° C.), 0.06%. For the same molecule, the “Total amount of impurities” value is 0.09% in data set [3] (24 months 5° C.) and 0.06% in data set [3] (t0). For the same molecule, the “Crystalline Form (XRD assessment)” value in data set [3] (12 months 5° C.), in data set [3] (24 months 5° C.) and in data set [3] (t0) was “Form I” in each case. Further, the “Time over which the substance is stable” value in data set [3] (long term conditions) was ≥ 24 months. In addition, in data set [4], the “Improvement of solubility versus the free base” value is on record as “at least 24 000 times”. Also, the “Improvement of solubility versus the hydrochloride salt” value in data set [4] was “at least 25 times”. Further, the “Solubility 1 hour” value in data set [5] (NaCl 0.9%) was determined as 81.0 mg/ml as free base; in data set [5] (water) it was 87.5 mg/ml as free base. Also, the “Solubility 24 hours” value was 133.6 mg/ml as free base in data set [5] (NaCl 0.9%) and 130.2 mg/ml as free base in data set [5] (water). Further, the “Solubility at room temperature” value in data set [5] (both in water and in NaCl 0.9%) was “at least 130 mg/ml expressed as free base”.
As to `CCc1cccc(CC)c1NC(=O)c1nn(C)c2c1CCc1cnc(Nc3ccc(N4CCC(N(C)C)CC4)cc3OC)nc1-2` [Free Base, N-(2,6-diethylphenyl)-8-({4-[4-(dimethylamino)piperidin-1-yl]-2-methoxyphenyl}amino)-1-methyl-4,5-dihydro-1H-pyrazolo[4,3-h]quinazoline-3-carboxamide], in data set [6], the “Ability to inhibit MPS1 kinase” value is given as “has the ability to inhibit MPS1”. In data set [2], this molecule registered a Water uptake at 30% RH of 0.4%, a Water uptake at 60% RH of 1% and a Water uptake at 90% RH of 2.8%. Also, in data set [4] (water, 1 hour), the “Solubility 1 hour” value is given as <0.001 mg/ml as free base. Also, the “Solubility 24 hours” value in data set [4] (water, 24 hours) is recorded as <0.001 mg/ml as free base. Further, in data set [5] (water), the “Solubility 1 hour” value is <0.001 mg/ml as free base and the “Solubility 24 hours” value is listed as <0.001 mg/ml as free base.
